Assay results from US12661313B2, “Cosmetic composition” (MARY KAY INC., priority 2019, dated 2026).

How the values were obtained:
[1] = tested on: procollagen-1; experiment: Collagen Stimulation Assay (PICP ELISA, Takara #MK101); format: cell-based; details: normal human adult epidermal fibroblasts treated 3 days, culture medium
Description: Collagens (types I, II, III, IV and V) are synthesized as precursor molecules called procollagens. These precursor molecules contain additional peptide sequences, usually called “propeptides”, at both the amino-terminal and the carboxy-terminal ends. During cellular expression and secretion, procollagens are assembled in the trimeric form and then cleaved at specific N- and C-terminal sites by specific endopeptidases, generating three fragments: procollagen-1 N-terminal propeptide (PINP), Type I collagen, and procollagen-1 carboxy-terminal propeptide (PICP).
The function of the propeptides is to facilitate the winding of procollagen molecules into a triple-helical conformation within the endoplasmic reticulum. […]
Quantitative detection of PICP in fibroblast cell extracts and culture supernatants was performed with an enzyme immunoassay kit (e.g., Takara #MK101) to assess the effects of the ingredients on the synthesis of PICP in skin. […] The assay employed the quantitative sandwich enzyme immunoassay technique whereby a monoclonal antibody specific for procollagen peptide was pre-coated onto a microplate. […] Color development was stopped and the intensity of the color at 450 nm was measured using a microplate reader. […]

[2] = target: T1, MMP-3 (Homo sapiens, UniProt P08254); experiment: Matrix Metalloproteinase 3 Enzyme Activity (MMP-3) Assay (BioMol AK-400); format: biochemical; details: thiopeptide chromogenic substrate, absorbance 412 nm
T1 construct: purchased BioMol International AK-400
Description: (§1) MMPs are extracellular proteases that play a role in many normal and disease states by virtue of their broad substrate specificity. MMP-3 substrates include collagens, fibronectins, and laminin; while MMP-9 substrates include collagen VII, fibronectins and laminin. Colorimetric Drug Discovery kits from BioMol International for MMP-3 (AK-400) and MMP-9 (AK-410) were used to measure protease activity of MMPs using a thiopeptide as a chromogenic substrate (Ac-PLG-[2-mercapto-4-methyl-pentanoyl]-LG-OC2H5)5,6. The MMP cleavage site peptide bond is replaced by a thioester bond in the thiopeptide. Hydrolysis of this bond by an MMP produces a sulfhydryl group, which reacts with DTNB [5,5′-dithiobis(2-nitrobenzoic acid), Ellman's reagent] to form 2-nitro-5-thiobenzoic acid, which can be detected by its absorbance at 412 nm (ε=13,600 M−1 cm−1 at pH 6.0 and above 7). It was determined that Rosmarinus officinalis leaf extract inhibited MMP-3 by 40%, Morus alba fruit extract inhibited by 29%, and tetrahexyldecyl ascorbate inhibited by 38%. It was determined that Rosmarinus officinalis leaf extract inhibited MMP-9 by 61%, Morus alba fruit extract inhibited by 84%, tetrahexyldecyl ascorbate inhibited by 11%, and Acmella oleracea extract inhibited by 80%.

[3] = tested on: IL-6; experiment: Inhibition of IL-6
[4] = target: T2, MMP-9 (Homo sapiens, UniProt P14780); experiment: Matrix Metalloproteinase 9 Enzyme Activity (MMP-9) Assay (BioMol AK-410); format: biochemical; details: thiopeptide chromogenic substrate, absorbance 412 nm
T2 construct: purchased BioMol International AK-410
Description: as §1

[5] = tested on: TNF-α; experiment: Tumor Necrosis Factor Alpha (TNF-α) Assay (ELISA, PMA-treated keratinocytes); format: cell-based; details: normal human adult keratinocytes, PMA 10 ng/ml, 6 hours
Description: Tumor Necrosis Factor Alpha (TNF-α) Assay: Rosmarinus officinalis leaf extract and saccharide isomerate inhibit TNF-α activity. The prototype ligand of the TNF superfamily, TNF-α, is a pleiotropic cytokine that plays a central role in inflammation. Increase in its expression is associated with an up regulation in pro-inflammatory activity. The bioassay used analyzed the effect of Rosmarinus officinalis leaf extract and saccharide isomerate on the production of TNF-α by human epidermal keratinocytes. The endpoint of this assay was a spectrophotometric measurement that reflects the presence of TNF-α and cellular viability. The assay employed the quantitative sandwich enzyme immunoassay technique whereby a monoclonal antibody specific for TNF-α had been pre-coated onto a microplate.
Standards and samples were pipetted into wells of the microplate and any TNF-α present was bound by the immobilized antibody. After washing away any unbound substances, an enzyme-linked polyclonal antibody specific for TNF-α was added to the wells. Following a wash to remove any unbound antibody-enzyme reagent, a substrate solution was added to the wells and color developed in proportion to the amount of TNF-α bound in the initial step using a microplate reader for detection at 450 nm. The color development can be stopped and the intensity of the color was measured. […]

T2 sequence (P14780 107-444 limits assumed): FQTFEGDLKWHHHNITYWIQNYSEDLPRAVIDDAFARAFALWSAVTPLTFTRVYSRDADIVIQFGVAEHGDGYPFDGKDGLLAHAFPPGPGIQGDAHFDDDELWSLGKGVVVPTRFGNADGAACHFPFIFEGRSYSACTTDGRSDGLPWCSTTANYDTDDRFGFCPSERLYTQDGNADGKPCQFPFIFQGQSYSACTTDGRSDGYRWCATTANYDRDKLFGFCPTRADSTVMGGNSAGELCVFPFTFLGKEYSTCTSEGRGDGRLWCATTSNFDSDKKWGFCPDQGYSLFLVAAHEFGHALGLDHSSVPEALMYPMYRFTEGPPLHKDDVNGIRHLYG
T1 sequence (P08254 100-272 limits assumed): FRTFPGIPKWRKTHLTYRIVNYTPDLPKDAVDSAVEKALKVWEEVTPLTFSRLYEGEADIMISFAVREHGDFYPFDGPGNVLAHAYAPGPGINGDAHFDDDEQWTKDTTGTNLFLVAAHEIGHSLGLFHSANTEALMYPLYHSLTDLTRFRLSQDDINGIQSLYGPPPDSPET

Inhibit MMP-3, Change (%) [2] [%] | Inhibit MMP-9, Change (%) [4] [%] | Molecule | Increase Collagen Expression (procollagen-1), Change (%) [1] [%] | Inhibit IL-6, Change (%) [3] [%] | Inhibit TNF-α, Change (%) [5] [%]
38 | 11 | CCCCCCCCC(CCCCCC)C(=O)OC[C@H](OC(=O)C(CCCCCC)CCCCCCCC)[C@H]1OC(=O)C(OC(=O)C(CCCCCC)CCCCCCCC)=C1OC(=O)C(CCCCCC)CCCCCCCC (some centres unmarked) [Tetrahexyldecyl ascorbate] | 50 | 38 | –
– | – | Saccharide isomerate | – | – | 88
